Experimental data: PMC8741257, “Identification of novel non-toxic and anti-angiogenic α-fluorinated chalcones as potent colchicine binding site inhibitors” (Journal of Enzyme Inhibition and Medicinal Chemistry, 2022)
Read-outs that look alike come from different tables or passages of the source.

Experiments:
[1] = tested on: MGC-803 (human gastric cancer cells); experiment: Antiproliferative activity (SRB / CCK-8 assay); format: cell-based; conditions: mean ± SD
Method: MCF-7, MGC-803, Hela and HepG-2 cell lines were cultured in a base medium (90% DMEM and 10% FBS), A549 and U937 were cultured in a base medium (90% PRMI-1640 and 10% FBS) at 37 °C, 5% CO2 and a saturated humidity atmosphere. All the mediums were supplemented with 10% FBS and 1% […]/streptomycin (all cells were purchased from Shanghai Institutes for Biological Sciences, Chinese Academy of Sciences, Shanghai, China).
(§1) A549, MGC-803, MCF-7, HepG2 and Hela cells were seeded at the appropriate cell line density (3 × 10^3 to 4 × 10^3 cells/well). The cells were then incubated at 37 °C for 24 h in a humidified 5%CO2 in 96-well plates prior to experiments. After a further 72 h of incubation, cell proliferation was quantified with SRB ([…]) to determine the number of surviving cells. The absorbance at 560 nm was measured by microplate. The experiment was repeated three times, and the data were listed in the form of mean and standard deviation.
(§2) MGC-803 cells were collected and seeded into 96 well plates at a density of 8000/well. The mediums containing drugs and cell suspension were added into the well. The cells were incubated in 5% CO2 incubator at 37 °C for 72 h. Each well was added 10 µL CCK8 solution, and the incubation time was 3–4 h. The absorbance value at 450 nm was measured by microplate reader. Data are calculated with GraphPad Prism5 software.

[2] = tested on: Tg(flk1: EGFP) zebrafish embryos; experiment: Zebrafish angiogenesis assay; format: in vivo
Method: Since zebrafish embryos emerged as a powerful model for studying human diseases, the transgenic zebrafish with green fluorescent protein (GFP) labelled endothelial cells have been used extensively for testing angiogenesis in vivo. In this work, an anti-angiogenetic activity of 4c was confirmed by Tg(flk1: EGFP) zebrafish embryos in vivo assay. Fluorescently labelled 3hpf period embryos were treated with different doses of 4c and incubated at 28.5 °C. Until 30hpf, zebrafish was imaged under a fluorescent microscopy to observe the affection of applied agents on intersegmental vessels (ISVs) development. As shown in the Figure 11, ISVs were clearly observed in newly born zebrafish embryos of solvent-treated control group, which were growing at regular longitudinal and equidistant intervals.
The transgenic flk: enhanced GFP zebrafish embryos were transferred into 6-well plates (n = 30 per well) with 1 ml of aquaculture water (0.2 g/L of Instant Ocean Salt in distilled water) and raised at 28 °C. Then the embryos dechorionated at 12 h post fertilisation (hpf) was treated with the indicated concentrations of 4c or vehicle (DMSO). About 30 embryos were screened for each concentration gradient. At 30hpf, the zebrafish embryos were stripped, anaesthetised, and fixed with agarose gel. The images were taken under the microscope, and the number of blood vessels between the segments was recorded. Results were obtained from three independent determinations and presented as mean ± SD.

[3] = tested on: six human cancer cell lines (MCF-7, MGC-803, HepG2, Hela, A549, U937); experiment: Antiproliferative activity, summary over the tested cancer cell lines; format: cell-based; conditions: read-out: IC50
Method: as §1, §2

[4] = tested on: HUVECs (human umbilical vein endothelial cells); experiment: Transwell cell invasion assay; format: cell-based; conditions: 2.5, 5 and 10 µM, 24 h
Method: HUVECs (human umbilical vein endothelial cells) grown on Matrigel were commonly used as a tube formation model for studying the physiological and pathological processes of the vascular system in vitro, and a widely studied human endothelial cell type in angiogenesis. The effect of 4c on endothelial cell migration was assessed by using HUVECs. Standardised wounds were made in confluent monolayers of HUVECs and then exposed to compound 4c at 2.5, 5 and 10 µM for 48 h. […] We further evaluated the capacity of 4 s on endothelial cell invasion using a Transwell assay.
Matrix gel was thawed overnight at 4 °C. […] Then the cells were washed three times with PBS and fixed cells by 4% paraformaldehyde for 30 min. Subsequently, 0.2% crystal violet solution was added, stained for 30 min, and the invasion of cells was observed under the microscope. Transwell was placed into a 24-well plate, 35% acetic acid (300 μL) was added to the upper chamber of the chamber, and after acetic acid completely entered the lower chamber, 100 μL of acetic acid from the lower chamber was aspirated into a 96-well plate, and three replicate wells of each concentration were shaken for 10 min, and the absorbance was measured at 560 nm with an enzyme marker.

[5] = tested on: MGC-803 cells; experiment: Transwell cell invasion assay; format: cell-based, human; conditions: compared with control group
Method: Metastasis is one of the leading causes of morbidity and mortality of cancer patients. Microtubules-targeting inhibitors have also been reported to interfere with cell migration and invasion. Accordingly, the in vitro would healing assay and Transwell assays were performed to investigate the inhibitory effect of compound 4c on the migration and invasion of MGC-803 cells. As shown Figure 8(A,C), the scratches healing rate in the control group was approximately 64%. By contrast, the cells treated with 4c have much smaller scratched areas recovery at all concentrations. […] Cell invasion is an important malignant behaviour during cancer metastasis. In Tanswell assay, MGC-803 cells were seeded into upper chambers with pre-coated Matrigel stimulating base membrane in order to assess the cellular invasion.
Matrix gel was thawed overnight at 4 °C. […] Transwell was placed into a 24-well plate, 35% acetic acid (300 μL) was added to the upper chamber of the chamber, and after acetic acid completely entered the lower chamber, 100 μL of acetic acid from the lower chamber was aspirated into a 96-well plate, and three replicate wells of each concentration were shaken for 10 min, and the absorbance was measured at 560 nm with an enzyme marker.

[6] = tested on: microtubule network of MGC-803 cells; experiment: Immunofluorescent staining of the cellular microtubule network; format: cell-based, human; conditions: 18, 36, and 72 nM
Method: Since tubulin-microtubule system plays a crucial role in mechanical solidity, cell motility and mitosis, an immunofluorescent staining assay was further carried out in MGC-803 cells to evaluate the inhibitory effects of 4c on microtubule cytoskeleton. […] Upon treatment with higher concentrations of 4c, the dispersed tubulin dimers were even more obvious and there is no tubular structure left.
MGC-803 cells (3 × 10^4 cells/well) were seeded into 6 well-plates and then treated with vehicle control 0.1% DMSO and 4c (18, 36, 72nΜ). The cells were rinsed twice with PBS and fixed by 4% paraformaldehyde for 20 min. Subsequently, microtubule detection was performed using a fluorescent antibody against α-tubulin in 5% BSA and incubated for 5 ∼ 6 h at room temperature. To stain cell nucleus, crystals were incubated with Hoechst for 10 min. After washing with PBST to remove redundant stain, the samples were visualised under an Olympus laser scanning confocal microscope.

SMILES: COc1cc(C(=O)/C(F)=C/c2c[nH]c3cc(Br)ccc23)cc(OC)c1OC [4c, (Z)-3–(6-bromo-1H-indol-3-yl)-2-fluoro-1–(3,4,5-trimethoxyphenyl)prop-2-en-1-one]
- IC50 ([1]; Table 2, triplicate): 57 ± 6 nM
- IC50 ([1]; three separated experiments, 72 h): 57.1 ± 6 nM
- embryo development and blood vessels ([2]; dose ≥ 5 µM): marked delay in development and only scattered or fragmentary blood vessels were observed
- lowest dose with anti-angiogenic phenotype ([2]; imaged at 30hpf): 2.5 µM
- number and length of intersegmental vessels (ISVs) ([2]; imaged at 30hpf, different doses): all dose-dependently reduced
- IC50 ([3]; against five of the tested cell lines, range): 25 to 202 nM
- IC50 ([3]; against six cell lines, range as worded in text): 25 to 254 nM
- number of cells invaded into lower chamber [4]: gradually decreased in a dose-dependent manner
- invasion ability (Transwell, Matrigel) [5]: significant reduced invasion ability
- Effect on cellular microtubule network [6]: remarkable disruption of microtubule reticular network
